For six compounds, EC50 results are on record in patent US20140213513A1 (Sanofi, priority 2012, published 2014).

*1 amine or outer side, *2 acyl side, *3 side chain or, on linkers, in order; H or OH if unused. Where a SMILES comes first, the peptide text is derived from it. Side-chain parts run from the residue outwards. [ ]: non-standard residue; d: D form. The star is where a group is joined. γGlu = O=C(O)[C@H](CCC(=O)[*:2])N[*:1]; Palmitoyl = CCCCCCCCCCCCCCCC(=O)*; Aib = CC(C)(N)C(=O)O

Common to all, as to type: cell-based
Holding throughout (settings): Table 7; cAMP formation

Test [1] has as its target T1, human GLP-1 receptor (hGLP-1 R) (Homo sapiens, UniProt P43220).
T1 construct: expressed in transfected cells
Description: cAMP response of HEK-293 cells stably expressing human GLP-1 receptor (HTRF). In a few lines: (§1)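 cAMP accumulation was read by homogeneous time-resolved fluorescence after 30 min compound exposure at room temperature. Stable receptor-expressing HEK-293 cells, 400000 cells/ml, were used in HEPES-buffered HBSS containing 0.1% BSA and the phosphodiesterase inhibitor IBMX (2 mM).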

Test [2] concerns the target T2, human GIP receptor (hGIP R) (Homo sapiens, UniProt P48546).
T2 construct: expressed in transfected cells
T2 sequence (P48546 22-466): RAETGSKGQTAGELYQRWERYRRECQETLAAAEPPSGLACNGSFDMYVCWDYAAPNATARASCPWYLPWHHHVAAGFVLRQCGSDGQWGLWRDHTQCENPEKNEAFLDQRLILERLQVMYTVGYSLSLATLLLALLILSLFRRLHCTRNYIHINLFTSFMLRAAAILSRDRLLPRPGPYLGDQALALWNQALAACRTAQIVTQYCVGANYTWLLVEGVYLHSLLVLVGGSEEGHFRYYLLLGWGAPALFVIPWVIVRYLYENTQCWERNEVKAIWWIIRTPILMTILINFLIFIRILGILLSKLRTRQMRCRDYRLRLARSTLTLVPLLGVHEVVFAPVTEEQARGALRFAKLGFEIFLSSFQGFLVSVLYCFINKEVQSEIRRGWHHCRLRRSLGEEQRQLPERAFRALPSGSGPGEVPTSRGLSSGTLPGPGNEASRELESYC
Description: cAMP response of HEK-293 cells stably expressing human GIP receptor (HTRF). In outline: as §1

The target of test [3] is T3, human glucagon receptor (hGLUC R) (Homo sapiens, UniProt P47871).
T3 construct: expressed in transfected cells
Description: cAMP response of HEK-293 cells stably expressing human glucagon receptor (HTRF). In a few lines: as §1

T1 sequence (P43220 24-463): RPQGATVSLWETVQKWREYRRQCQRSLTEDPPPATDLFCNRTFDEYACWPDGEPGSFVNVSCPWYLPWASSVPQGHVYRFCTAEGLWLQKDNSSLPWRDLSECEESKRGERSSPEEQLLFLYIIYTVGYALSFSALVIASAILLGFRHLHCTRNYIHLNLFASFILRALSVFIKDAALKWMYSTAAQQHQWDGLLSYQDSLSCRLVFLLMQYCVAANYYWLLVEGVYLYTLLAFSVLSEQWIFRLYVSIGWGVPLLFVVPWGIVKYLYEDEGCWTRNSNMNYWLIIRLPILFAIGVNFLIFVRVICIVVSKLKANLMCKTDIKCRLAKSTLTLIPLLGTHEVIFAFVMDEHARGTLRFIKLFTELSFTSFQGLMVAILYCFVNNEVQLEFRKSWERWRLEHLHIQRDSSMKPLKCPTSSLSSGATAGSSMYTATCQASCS
T3 sequence (P47871 26-477): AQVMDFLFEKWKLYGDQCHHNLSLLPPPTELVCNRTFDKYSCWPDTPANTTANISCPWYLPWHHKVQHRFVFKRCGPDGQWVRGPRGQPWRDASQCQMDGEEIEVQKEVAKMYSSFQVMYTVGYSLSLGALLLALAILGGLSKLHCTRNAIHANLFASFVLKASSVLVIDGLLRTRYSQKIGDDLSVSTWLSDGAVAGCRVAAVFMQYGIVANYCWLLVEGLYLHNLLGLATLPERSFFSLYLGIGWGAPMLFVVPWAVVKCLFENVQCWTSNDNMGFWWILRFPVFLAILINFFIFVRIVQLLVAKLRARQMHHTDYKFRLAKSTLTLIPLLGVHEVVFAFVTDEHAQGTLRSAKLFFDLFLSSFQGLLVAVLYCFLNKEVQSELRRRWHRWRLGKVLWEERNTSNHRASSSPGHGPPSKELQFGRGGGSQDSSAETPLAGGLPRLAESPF

In the case of `CCCCCCCCCCCCCCCC(=O)N[C@@H](CCC(=O)NCCCC[C@H](NC(=O)[C@H](CCC(N)=O)NC(=O)[C@@H](NC(=O)[C@H](CO)NC(=O)[C@H](CC(C)C)NC(=O)[C@H](CC(=O)O)NC(=O)[C@H](CO)NC(=O)[C@@H](NC(=O)[C@H](Cc1ccccc1)NC(=O)[C@@H](NC(=O)CNC(=O)[C@H](CCC(N)=O)NC(=O)C(C)(C)NC(=O)[C@@H](N)Cc1ccc(O)cc1)[C@@H](C)O)[C@@H](C)O)[C@@H](C)CC)C(=O)N[C@@H](CCC(=O)O)C(=O)N[C@@H](CCCCN)C(=O)N[C@@H](CCCNC(=N)N)C(=O)N[C@@H](C)C(=O)N[C@H](C(=O)NC(C)(C)C(=O)N[C@@H](CCC(=O)O)C(=O)N[C@@H](Cc1ccccc1)C(=O)N[C@H](C(=O)N[C@@H](CCC(=O)O)C(=O)N[C@@H](Cc1c[nH]c2ccccc12)C(=O)N[C@@H](CC(C)C)C(=O)N[C@@H](CCCCN)C(=O)N[C@@H](C)C(=O)NCC(=O)NCC(=O)N1CCC[C@H]1C(=O)N[C@@H](CO)C(=O)N[C@@H](CO)C(=O)NCC(=O)N[C@@H](C)C(=O)N1CCC[C@H]1C(=O)N1CCC[C@H]1C(=O)N1CCC[C@H]1C(=O)N[C@@H](CO)C(N)=O)[C@@H](C)CC)C(C)C)C(=O)O` [SEQ ID NO: 26, Y-Aib-Q-G-T-F-T-S-D-L-S-I-Q-K(yE-x53)-E-K-R-A-V-Aib-E-F-I-E-W-L-K-A-G-G-P-S-S-G-A-P-P-P-S-NH2] (H-Y[Aib]QGTFTSDLSIQK([γGlu-Palmitoyl])EKRAV[Aib]EFIEWLKAGGPSSGAPPPS-NH2), the values for the EC50 in test [1], in test [2] and in test [3] were 0.0176 nM, 0.0053 nM and 0.3 nM, respectively.

Consider `CCCCCCCCCCCCCCCC(=O)N[C@@H](CCC(=O)NCCCC[C@H](NC(=O)[C@H](CCC(N)=O)NC(=O)[C@@H](NC(=O)[C@H](CO)NC(=O)[C@H](CC(C)C)NC(=O)[C@H](CC(=O)O)NC(=O)[C@H](CO)NC(=O)[C@@H](NC(=O)[C@H](Cc1ccccc1)NC(=O)[C@@H](NC(=O)CNC(=O)[C@H](CCC(N)=O)NC(=O)C(C)(C)NC(=O)[C@@H](N)Cc1ccc(O)cc1)[C@@H](C)O)[C@@H](C)O)[C@@H](C)CC)C(=O)N[C@@H](CCC(=O)O)C(=O)N[C@@H](CCCCN)C(=O)NC(C)(C)C(=O)N[C@@H](C)C(=O)N[C@@H](C)C(=O)NC(C)(C)C(=O)N[C@@H](CCC(=O)O)C(=O)N[C@@H](Cc1ccccc1)C(=O)N[C@H](C(=O)N[C@@H](CCC(=O)O)C(=O)N[C@@H](Cc1c[nH]c2ccccc12)C(=O)N[C@@H](CC(C)C)C(=O)N[C@@H](CCCCN)C(=O)N[C@@H](CC(N)=O)C(=O)N[C@H](C(=O)NCC(=O)N1CCC[C@H]1C(=O)N[C@@H](CO)C(=O)N[C@@H](CO)C(=O)NCC(=O)N[C@@H](C)C(=O)N1CCC[C@H]1C(=O)N1CCC[C@H]1C(=O)N1CCC[C@H]1C(=O)N[C@@H](CO)C(N)=O)[C@@H](C)O)[C@@H](C)CC)C(=O)O` [SEQ ID NO: 9, Y-Aib-Q-G-T-F-T-S-D-L-S-I-Q-K(yE-x53)-E-K-Aib-A-A-Aib-E-F-I-E-W-L-K-N-T-G-P-S-S-G-A-P-P-P-S-NH2] (H-Y[Aib]QGTFTSDLSIQK([γGlu-Palmitoyl])EK[Aib]AA[Aib]EFIEWLKNTGPSSGAPPPS-NH2), for which the concentration giving a half-maximal response (EC50) came out at 0.0055 nM in test [1], 0.009 nM in test [2] and 0.445 nM in test [3].

Consider `CCCCCCCCCCCCCCCC(=O)N[C@@H](CCC(=O)NCCCC[C@H](NC(=O)[C@H](CCC(N)=O)NC(=O)[C@@H](NC(=O)[C@H](CO)NC(=O)[C@H](CC(C)C)NC(=O)[C@H](CC(=O)O)NC(=O)[C@H](CO)NC(=O)[C@@H](NC(=O)[C@H](Cc1ccccc1)NC(=O)[C@@H](NC(=O)CNC(=O)[C@H](CCC(=O)O)NC(=O)C(C)(C)NC(=O)[C@@H](N)Cc1ccc(O)cc1)[C@@H](C)O)[C@@H](C)O)[C@@H](C)CC)C(=O)N[C@@H](CCC(=O)O)C(=O)N[C@@H](CCC(=O)O)C(=O)N[C@@H](CCC(N)=O)C(=O)N[C@@H](C)C(=O)N[C@@H](C)C(=O)N[C@@H](Cc1c[nH]cn1)C(=O)N[C@@H](CCC(=O)O)C(=O)N[C@@H](Cc1ccccc1)C(=O)N[C@H](C(=O)N[C@@H](CCC(=O)O)C(=O)N[C@@H](Cc1c[nH]c2ccccc12)C(=O)N[C@@H](CC(C)C)C(=O)N[C@@H](CCCCN)C(=O)N[C@@H](CCCNC(=N)N)C(=O)NC(C)(C)C(=O)NCC(=O)N1CCC[C@H]1C(=O)N[C@@H](CO)C(=O)N[C@@H](CO)C(=O)NCC(=O)N[C@@H](C)C(=O)N1CCC[C@H]1C(=O)N1CCC[C@H]1C(=O)N1CCC[C@H]1C(=O)N[C@@H](CO)C(N)=O)[C@@H](C)CC)C(=O)O` [SEQ ID NO: 38, Y-Aib-E-G-T-F-T-S-D-L-S-I-Q-K(yE-x53)-E-E-Q-A-A-H-E-F-I-E-W-L-K-R-Aib-G-P-S-S-G-A-P-P-P-S-NH2], for which the EC50 in test [1] amounted to 0.009 nM; in test [2], 0.0074 nM; in test [3], 22.5 nM.

Take `CCCCCCCCCCCCCCCC(=O)N[C@@H](CCC(=O)NCCCC[C@H](NC(=O)[C@H](CCC(N)=O)NC(=O)[C@H](CCCCN)NC(=O)[C@H](CO)NC(=O)[C@H](CC(C)C)NC(=O)[C@H](CC(=O)O)NC(=O)[C@H](CO)NC(=O)[C@@H](NC(=O)[C@H](Cc1ccccc1)NC(=O)[C@@H](NC(=O)CNC(=O)[C@H](CCC(N)=O)NC(=O)C(C)(C)NC(=O)[C@@H](N)Cc1ccc(O)cc1)[C@@H](C)O)[C@@H](C)O)C(=O)N[C@@H](CC(=O)O)C(=O)N[C@@H](CO)C(=O)N[C@@H](CCCNC(=N)N)C(=O)N[C@@H](C)C(=O)N[C@@H](C)C(=O)N[C@@H](CCC(N)=O)C(=O)N[C@@H](CC(=O)O)C(=O)N[C@@H](Cc1ccccc1)C(=O)N[C@H](C(=O)N[C@@H](CCC(=O)O)C(=O)N[C@@H](Cc1c[nH]c2ccccc12)C(=O)N[C@@H](CC(C)C)C(=O)N[C@@H](CCCCN)C(=O)N[C@@H](C)C(=O)NCC(=O)NCC(=O)N1CCC[C@H]1C(=O)N[C@@H](CO)C(=O)N[C@@H](CO)C(=O)NCC(=O)N[C@@H](C)C(=O)N1CCC[C@H]1C(=O)N1CCC[C@H]1C(=O)N1CCC[C@H]1C(=O)N[C@@H](CO)C(N)=O)[C@@H](C)CC)C(=O)O` [SEQ ID NO: 66, Y-Aib-Q-G-T-F-T-S-D-L-S-K-Q-K(yE-x53)-DSRAAQDFIEWLKAGGPSSGAPPPS-NH2] (H-Y[Aib]QGTFTSDLSKQK([γGlu-Palmitoyl])DSRAAQDFIEWLKAGGPSSGAPPPS-NH2): the EC50 in test [1] was determined as 0.0036 nM; in test [2], 0.0826 nM; in test [3] it was 0.0052 nM.

As for `CCCCCCCCCCCCCCCC(=O)N[C@@H](CCC(=O)NCCCC[C@H](NC(=O)[C@H](CCC(N)=O)NC(=O)[C@@H](NC(=O)[C@H](CO)NC(=O)[C@H](CC(C)C)NC(=O)[C@H](CC(=O)O)NC(=O)[C@H](CO)NC(=O)[C@@H](NC(=O)[C@H](Cc1ccccc1)NC(=O)[C@@H](NC(=O)CNC(=O)[C@H](CCC(=O)O)NC(=O)C(C)(C)NC(=O)[C@@H](N)Cc1ccc(O)cc1)[C@@H](C)O)[C@@H](C)O)[C@@H](C)CC)C(=O)N[C@@H](CCC(=O)O)C(=O)N[C@@H](CCCCN)C(=O)N[C@@H](CCCNC(=N)N)C(=O)N[C@@H](C)C(=O)N[C@@H](C)C(=O)NC(C)(C)C(=O)N[C@@H](CCC(=O)O)C(=O)N[C@@H](Cc1ccccc1)C(=O)N[C@H](C(=O)N[C@@H](CCC(=O)O)C(=O)N[C@@H](Cc1c[nH]c2ccccc12)C(=O)N[C@@H](CC(C)C)C(=O)N[C@@H](CCCCN)C(=O)N[C@@H](CCCNC(=N)N)C(=O)N[C@@H](C)C(=O)NCC(=O)N1CCC[C@H]1C(=O)N[C@@H](CO)C(=O)N[C@@H](CO)C(=O)NCC(=O)N[C@@H](C)C(=O)N1CCC[C@H]1C(=O)N1CCC[C@H]1C(=O)N1CCC[C@H]1C(=O)N[C@@H](CO)C(N)=O)[C@@H](C)CC)C(=O)O` [SEQ ID NO: 20, Y-Aib-E-G-T-F-T-S-D-L-S-I-Q-K(yE-x53)-E-K-R-A-A-Aib-E-F-I-E-W-L-K- R-A-G-P-S-S-G-A-P-P-P-S-NH2] (H-Y[Aib]EGTFTSDLSIQK([γGlu-Palmitoyl])EKRAA[Aib]EFIEWLKRAGPSSGAPPPS-NH2), the EC50 amounted to 0.0082 nM in test [1], 0.0163 nM in test [2] and 18.2 nM in test [3].

As to `CCCCCCCCCCCCCCCC(=O)N[C@@H](CCC(=O)NCCCC[C@H](NC(=O)[C@H](CCC(N)=O)NC(=O)[C@@H](NC(=O)[C@H](CO)NC(=O)[C@H](CC(C)C)NC(=O)[C@H](CC(=O)O)NC(=O)[C@H](CO)NC(=O)[C@@H](NC(=O)[C@H](Cc1ccccc1)NC(=O)[C@@H](NC(=O)CNC(=O)[C@H](CCC(N)=O)NC(=O)C(C)(C)NC(=O)[C@@H](N)Cc1ccc(O)cc1)[C@@H](C)O)[C@@H](C)O)[C@@H](C)CC)C(=O)N[C@@H](CCC(=O)O)C(=O)N[C@@H](CCCCN)C(=O)N[C@@H](Cc1ccc(O)cc1)C(=O)N[C@@H](C)C(=O)N[C@@H](C)C(=O)NC(C)(C)C(=O)N[C@@H](CCC(=O)O)C(=O)N[C@@H](Cc1ccccc1)C(=O)N[C@H](C(=O)N[C@@H](CCC(=O)O)C(=O)N[C@@H](Cc1c[nH]c2ccccc12)C(=O)N[C@@H](CC(C)C)C(=O)N[C@@H](CCCCN)C(=O)N[C@@H](CC(N)=O)C(=O)N[C@H](C(=O)NCC(=O)N1CCC[C@H]1C(=O)N[C@@H](CO)C(=O)N[C@@H](CO)C(=O)NCC(=O)N[C@@H](C)C(=O)N1CCC[C@H]1C(=O)N1CCC[C@H]1C(=O)N1CCC[C@H]1C(=O)N[C@@H](CO)C(N)=O)[C@@H](C)O)[C@@H](C)CC)C(=O)O` [SEQ ID NO: 10, Y-Aib-Q-G-T-F-T-S-D-L-S-I-Q-K(yE-x53)-E-K-Y-A-A-Aib-E-F-I-E-W-L-K-N-T-G-P-S-S-G-A-P-P-P-S-NH2] (H-Y[Aib]QGTFTSDLSIQK([γGlu-Palmitoyl])EKYAA[Aib]EFIEWLKNTGPSSGAPPPS-NH2), the EC50 in test [1] is 0.0052 nM; in test [2], 0.0144 nM; in test [3], 0.667 nM.
